Measured values as given in paper PMC11827853, “C2230, a preferential use- and state-dependent CaV2.2 channel blocker, mitigates pain behaviors across multiple pain models” (The Journal of Clinical Investigation, 2024).

Legend:
CaV1.2 = system: T1, CaV1.2; test: patch-clamp of heterologously expressed channel, Vh -80 mV ([…] at -50 mV); format: cell-based
T1 construct: gene CACNA1C

[1] = target: T2, CaV2.2 (N-type) calcium channel (Rattus norvegicus, UniProt Q02294); test: patch-clamp in HEK293 cells expressing the channel, Vh -50 mV ([…] at -80 mV); format: cell-based
T2 construct: gene Cacna1b
T2 sequence (Q02294 whole entry): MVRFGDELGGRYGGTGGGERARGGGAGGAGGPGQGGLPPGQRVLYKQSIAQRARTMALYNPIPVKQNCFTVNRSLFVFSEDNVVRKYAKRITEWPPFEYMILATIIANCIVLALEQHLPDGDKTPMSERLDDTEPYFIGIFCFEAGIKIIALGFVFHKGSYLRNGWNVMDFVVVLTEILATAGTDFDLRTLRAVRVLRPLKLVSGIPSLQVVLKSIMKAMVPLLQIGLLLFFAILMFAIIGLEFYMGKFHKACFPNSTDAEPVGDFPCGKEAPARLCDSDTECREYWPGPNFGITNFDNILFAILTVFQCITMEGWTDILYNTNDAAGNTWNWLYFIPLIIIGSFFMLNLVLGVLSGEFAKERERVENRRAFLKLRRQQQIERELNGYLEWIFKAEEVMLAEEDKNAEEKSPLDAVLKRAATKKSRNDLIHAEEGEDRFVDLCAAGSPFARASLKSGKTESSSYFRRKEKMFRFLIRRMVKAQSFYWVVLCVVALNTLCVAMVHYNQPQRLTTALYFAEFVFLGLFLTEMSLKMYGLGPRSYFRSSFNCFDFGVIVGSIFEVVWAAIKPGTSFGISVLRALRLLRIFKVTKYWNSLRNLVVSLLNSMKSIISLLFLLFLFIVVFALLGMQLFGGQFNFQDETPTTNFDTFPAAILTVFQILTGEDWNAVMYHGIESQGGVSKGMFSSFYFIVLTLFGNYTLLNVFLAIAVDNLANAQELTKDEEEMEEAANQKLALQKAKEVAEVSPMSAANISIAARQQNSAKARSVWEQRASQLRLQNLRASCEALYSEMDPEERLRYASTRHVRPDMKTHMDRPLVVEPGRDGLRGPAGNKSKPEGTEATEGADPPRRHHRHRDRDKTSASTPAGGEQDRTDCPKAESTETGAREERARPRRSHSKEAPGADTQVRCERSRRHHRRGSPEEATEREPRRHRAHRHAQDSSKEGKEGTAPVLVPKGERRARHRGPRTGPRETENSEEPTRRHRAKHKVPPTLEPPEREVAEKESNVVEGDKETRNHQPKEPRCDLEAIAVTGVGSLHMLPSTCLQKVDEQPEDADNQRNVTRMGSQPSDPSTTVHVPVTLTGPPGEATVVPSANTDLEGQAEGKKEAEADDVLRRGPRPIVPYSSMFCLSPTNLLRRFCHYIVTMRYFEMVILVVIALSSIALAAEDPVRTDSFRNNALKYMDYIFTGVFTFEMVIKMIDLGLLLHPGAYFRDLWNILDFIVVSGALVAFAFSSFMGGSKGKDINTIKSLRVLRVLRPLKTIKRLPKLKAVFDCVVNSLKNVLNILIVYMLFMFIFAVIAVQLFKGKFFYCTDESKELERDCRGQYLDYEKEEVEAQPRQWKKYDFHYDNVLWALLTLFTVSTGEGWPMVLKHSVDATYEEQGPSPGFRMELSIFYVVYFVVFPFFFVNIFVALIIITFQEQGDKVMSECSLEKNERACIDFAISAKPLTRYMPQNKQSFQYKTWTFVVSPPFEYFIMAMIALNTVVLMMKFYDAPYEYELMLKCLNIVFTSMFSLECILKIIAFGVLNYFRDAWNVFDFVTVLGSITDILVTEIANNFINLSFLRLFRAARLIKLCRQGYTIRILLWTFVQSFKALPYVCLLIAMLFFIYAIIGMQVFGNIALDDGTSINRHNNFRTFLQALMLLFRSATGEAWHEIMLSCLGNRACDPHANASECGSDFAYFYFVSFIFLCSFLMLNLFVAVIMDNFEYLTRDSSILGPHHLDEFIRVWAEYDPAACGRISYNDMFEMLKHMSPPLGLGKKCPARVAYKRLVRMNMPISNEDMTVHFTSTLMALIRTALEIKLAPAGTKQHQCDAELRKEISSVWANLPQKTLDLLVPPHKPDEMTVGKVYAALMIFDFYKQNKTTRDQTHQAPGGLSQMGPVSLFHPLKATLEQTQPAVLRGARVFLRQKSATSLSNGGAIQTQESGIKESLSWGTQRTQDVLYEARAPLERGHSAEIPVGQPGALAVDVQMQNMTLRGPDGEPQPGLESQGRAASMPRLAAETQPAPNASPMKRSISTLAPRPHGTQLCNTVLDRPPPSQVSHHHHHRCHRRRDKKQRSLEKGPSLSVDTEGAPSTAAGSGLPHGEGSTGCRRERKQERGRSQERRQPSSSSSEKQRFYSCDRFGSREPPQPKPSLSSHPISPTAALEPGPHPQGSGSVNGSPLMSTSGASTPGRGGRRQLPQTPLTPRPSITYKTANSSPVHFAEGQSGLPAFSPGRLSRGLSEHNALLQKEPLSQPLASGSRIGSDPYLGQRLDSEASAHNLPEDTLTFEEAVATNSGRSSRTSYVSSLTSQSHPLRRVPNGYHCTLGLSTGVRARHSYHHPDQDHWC

## COc1ccc(OCC(O)CNC2CCCC2)c(C(C)(C)C)c1 (racemic) [C2230, 1-(2-tert-butyl-4-methoxyphenoxy)-3-(cyclopentylamino)propan-2-ol]
CaV1.2
  IC50: 22.7 ± 6.3 µM
[1]
  IC50: 1.3 ± 0.1 µM
